Tests used:
[1] = system: Phakopsora pachyrhizi (F129L); assay: Protective control of soybean rust on soybeans (PHAKPA P2); type: in vivo; conditions: for % PHAKPA (F129L) Disease level P2 at 4 ppm: protective P2, 4 ppm; for % PHAKPA (F129L) Disease level P2 at 4 ppm / % PHAKPA (F129L) Disease level P2 at 16 ppm: soybean rust F129L isolate; for % PHAKPA (F129L) Disease level P2 at 16 ppm: protective P2, 16 ppm
[2] = system: Phakopsora pachyrhizi (F129L); assay: Protective control of soybean rust on soybeans (PHAKPA P6); type: in vivo; conditions: for % PHAKPA (F129L) Disease level P6 at 4 ppm: protective P6, 4 ppm; for % PHAKPA (F129L) Disease level P6 at 4 ppm / % PHAKPA (F129L) Disease level P6 at 16 ppm: soybean rust F129L isolate; for % PHAKPA (F129L) Disease level P6 at 16 ppm: protective P6, 16 ppm

## CNC(=O)/C(=N/OC)c1cccc(C)c1CO/N=C(\C)c1cc(F)ccc1F [compound 131]
[1]
  % PHAKPA (F129L) Disease level P2 at 4 ppm: 0%
  % PHAKPA (F129L) Disease level P2 at 16 ppm: 0%
[1]; protective, inoculation 2 days after spraying, 16 ppm, % diseased leaf area
  PHAKPA (F129L) Disease level (%) P2 at 16 ppm: 0%
[2]
  % PHAKPA (F129L) Disease level P6 at 4 ppm: 2%
  % PHAKPA (F129L) Disease level P6 at 16 ppm: 0%
[2]; protective, inoculation six days after spraying, 16 ppm, % diseased leaf area
  PHAKPA (F129L) Disease level (%) P6 at 16 ppm: 0%

## CO/N=C(/C(=O)OC)c1cccc(C)c1CO/N=C(\C)c1ccccc1C(C)C [compound 218]
[1]
  % PHAKPA (F129L) Disease level P2 at 4 ppm: 100%
  % PHAKPA (F129L) Disease level P2 at 16 ppm: 87%
[2]
  % PHAKPA (F129L) Disease level P6 at 4 ppm: 100%
  % PHAKPA (F129L) Disease level P6 at 16 ppm: 100%

## CNC(=O)/C(=N/OC)c1cccc(C)c1CO/N=C(\C)c1ccccc1C1CC1 [compound 219]
[1]
  % PHAKPA (F129L) Disease level P2 at 4 ppm: 60%
  % PHAKPA (F129L) Disease level P2 at 16 ppm: 8%
[2]
  % PHAKPA (F129L) Disease level P6 at 4 ppm: 87%
  % PHAKPA (F129L) Disease level P6 at 16 ppm: 43%

## CNC(=O)/C(=N/OC)c1cccc(C)c1CO/N=C(\C)c1ccccc1C(C)C [compound 220]
[1]
  % PHAKPA (F129L) Disease level P2 at 4 ppm: 90%
  % PHAKPA (F129L) Disease level P2 at 16 ppm: 30%
[2]
  % PHAKPA (F129L) Disease level P6 at 4 ppm: 100%
  % PHAKPA (F129L) Disease level P6 at 16 ppm: 77%

## CNC(=O)/C(=N/OC)c1cccc(C)c1CO/N=C(\C)c1ccccc1CC(C)C [compound 221]
[1]
  % PHAKPA (F129L) Disease level P2 at 4 ppm: 100%
  % PHAKPA (F129L) Disease level P2 at 16 ppm: 63%
[2]
  % PHAKPA (F129L) Disease level P6 at 4 ppm: 100%
  % PHAKPA (F129L) Disease level P6 at 16 ppm: 100%

## CO/N=C(/C(=O)OC)c1cccc(C)c1CO/N=C(\C)c1ccccc1CC(F)(F)F [compound 222]
[1]
  % PHAKPA (F129L) Disease level P2 at 4 ppm: 100%
  % PHAKPA (F129L) Disease level P2 at 16 ppm: 57%
[2]
  % PHAKPA (F129L) Disease level P6 at 4 ppm: 100%
  % PHAKPA (F129L) Disease level P6 at 16 ppm: 93%

## CNC(=O)/C(=N/OC)c1cccc(C)c1CO/N=C(\C)c1ccccc1CC(F)(F)F [compound 223]
[1]
  % PHAKPA (F129L) Disease level P2 at 4 ppm: 4%
  % PHAKPA (F129L) Disease level P2 at 16 ppm: 0%
[2]
  % PHAKPA (F129L) Disease level P6 at 4 ppm: 28%
  % PHAKPA (F129L) Disease level P6 at 16 ppm: 0%

## CO/N=C(/C(=O)OC)c1cccc(C)c1CO/N=C(\C)c1ccccc1C#N [compound 224]
[1]
  % PHAKPA (F129L) Disease level P2 at 4 ppm: 97%
  % PHAKPA (F129L) Disease level P2 at 16 ppm: 100%
[2]
  % PHAKPA (F129L) Disease level P6 at 4 ppm: 100%
  % PHAKPA (F129L) Disease level P6 at 16 ppm: 100%

## CNC(=O)/C(=N/OC)c1cccc(C)c1CO/N=C(\C)c1ccccc1C#N [compound 225]
[1]
  % PHAKPA (F129L) Disease level P2 at 4 ppm: 83%
  % PHAKPA (F129L) Disease level P2 at 16 ppm: 27%
[2]
  % PHAKPA (F129L) Disease level P6 at 4 ppm: 100%
  % PHAKPA (F129L) Disease level P6 at 16 ppm: 97%

## CNC(=O)/C(=N/OC)c1cccc(C)c1CO/N=C(\C)c1cccc(OC/C(C)=N/OC)c1 [compound 226]
[1]
  % PHAKPA (F129L) Disease level P2 at 4 ppm: 28%
  % PHAKPA (F129L) Disease level P2 at 16 ppm: 3%
[2]
  % PHAKPA (F129L) Disease level P6 at 4 ppm: 57%
  % PHAKPA (F129L) Disease level P6 at 16 ppm: 7%

## CO/N=C(\C)COc1cccc(/C(C)=N/OCc2c(C)cccc2/C(=N\OC)C(=O)OC)c1 [compound 227]
[1]
  % PHAKPA (F129L) Disease level P2 at 4 ppm: 100%
  % PHAKPA (F129L) Disease level P2 at 16 ppm: 47%
[2]
  % PHAKPA (F129L) Disease level P6 at 4 ppm: 100%
  % PHAKPA (F129L) Disease level P6 at 16 ppm: 57%

## CNC(=O)/C(=N/OC)c1cccc(C)c1CO/N=C(\C)c1cc(Cl)cc(C(F)(F)F)c1 [compound 228]
[1]
  % PHAKPA (F129L) Disease level P2 at 4 ppm: 5%
  % PHAKPA (F129L) Disease level P2 at 16 ppm: 0%
[2]
  % PHAKPA (F129L) Disease level P6 at 4 ppm: 22%
  % PHAKPA (F129L) Disease level P6 at 16 ppm: 2%

## CO/N=C(/C(=O)OC)c1cccc(C)c1CO/N=C(\C)c1ccc(C)c(C(F)(F)F)c1 [compound 229]
[1]
  % PHAKPA (F129L) Disease level P2 at 4 ppm: 27%
  % PHAKPA (F129L) Disease level P2 at 16 ppm: 2%
[2]
  % PHAKPA (F129L) Disease level P6 at 4 ppm: 77%
  % PHAKPA (F129L) Disease level P6 at 16 ppm: 6%

## CNC(=O)/C(=N/OC)c1cccc(C)c1CO/N=C(\C)c1ccc(C)c(C(F)(F)F)c1 [compound 230]
[1]
  % PHAKPA (F129L) Disease level P2 at 4 ppm: 22%
  % PHAKPA (F129L) Disease level P2 at 16 ppm: 1%
[2]
  % PHAKPA (F129L) Disease level P6 at 4 ppm: 73%
  % PHAKPA (F129L) Disease level P6 at 16 ppm: 4%

## CO/C=C(/C(=O)OC)c1cccc(C)c1CO/N=C(\C)c1cccc(C(F)(F)F)c1 [compound 231]
[1]
  % PHAKPA (F129L) Disease level P2 at 4 ppm: 0%
  % PHAKPA (F129L) Disease level P2 at 16 ppm: 0%
[1]; protective, inoculation 2 days after spraying, 4 ppm, % diseased leaf area
  PHAKPA (F129L) Disease level (%) P2 at 4 ppm: 0%
[2]
  % PHAKPA (F129L) Disease level P6 at 4 ppm: 2%
  % PHAKPA (F129L) Disease level P6 at 16 ppm: 0%
[2]; protective, inoculation six days after spraying, 4 ppm, % diseased leaf area
  PHAKPA (F129L) Disease level (%) P6 at 4 ppm: 2%

## CNC(=O)/C(=C/OC)c1cccc(C)c1CO/N=C(\C)c1cccc(C(F)(F)F)c1 [compound 232]
[1]
  % PHAKPA (F129L) Disease level P2 at 4 ppm: 100%
  % PHAKPA (F129L) Disease level P2 at 16 ppm: 73%
[2]
  % PHAKPA (F129L) Disease level P6 at 4 ppm: 100%
  % PHAKPA (F129L) Disease level P6 at 16 ppm: 83%

## CNC(=O)/C(=N/OC)c1cccc(C)c1CO/N=C(\C)c1c(F)ccc(C(F)(F)F)c1NC [compound 233]
[1]
  % PHAKPA (F129L) Disease level P2 at 4 ppm: 100%
  % PHAKPA (F129L) Disease level P2 at 16 ppm: 57%
[2]
  % PHAKPA (F129L) Disease level P6 at 4 ppm: 87%
  % PHAKPA (F129L) Disease level P6 at 16 ppm: 27%

## CNC(=O)/C(=N/OC)c1cccc(C)c1CO/N=C(\CC1CC1)c1cccc(C(F)(F)F)c1 [compound 234]
[1]
  % PHAKPA (F129L) Disease level P2 at 4 ppm: 53%
  % PHAKPA (F129L) Disease level P2 at 16 ppm: 18%
[2]
  % PHAKPA (F129L) Disease level P6 at 4 ppm: 53%
  % PHAKPA (F129L) Disease level P6 at 16 ppm: 15%

## CNC(=O)/C(=N/OC)c1cccc(C)c1CO/N=C(\CC(C)C)c1cccc(C(F)(F)F)c1 [compound 235]
[1]
  % PHAKPA (F129L) Disease level P2 at 4 ppm: 100%
  % PHAKPA (F129L) Disease level P2 at 16 ppm: 73%
[2]
  % PHAKPA (F129L) Disease level P6 at 4 ppm: 87%
  % PHAKPA (F129L) Disease level P6 at 16 ppm: 77%

## CO/N=C(/C(=O)OC)c1cccc(C)c1CO/N=C(\C)c1ccccc1OC(F)(F)F [compound 236]
[1]
  % PHAKPA (F129L) Disease level P2 at 4 ppm: 97%
  % PHAKPA (F129L) Disease level P2 at 16 ppm: 77%
[2]
  % PHAKPA (F129L) Disease level P6 at 4 ppm: 97%
  % PHAKPA (F129L) Disease level P6 at 16 ppm: 100%

## CNC(=O)/C(=N/OC)c1cccc(C)c1CO/N=C(\C)c1cc(C(F)(F)F)cc(F)c1NC [compound 238]
[1]
  % PHAKPA (F129L) Disease level P2 at 4 ppm: 100%
  % PHAKPA (F129L) Disease level P2 at 16 ppm: 53%
[2]
  % PHAKPA (F129L) Disease level P6 at 4 ppm: 100%
  % PHAKPA (F129L) Disease level P6 at 16 ppm: 77%

## CO/N=C(/C(=O)OC)c1cccc(C)c1CO/N=C(\C)c1cc(Br)cc(F)c1F [compound 240]
[1]
  % PHAKPA (F129L) Disease level P2 at 4 ppm: 70%
  % PHAKPA (F129L) Disease level P2 at 16 ppm: 8%
[2]
  % PHAKPA (F129L) Disease level P6 at 4 ppm: 73%
  % PHAKPA (F129L) Disease level P6 at 16 ppm: 3%

## CNC(=O)/C(=N/OC)c1cccc(C)c1CO/N=C(\C)c1ccc(OC(F)(F)F)cc1Cl [compound 271]
[1]
  % PHAKPA (F129L) Disease level P2 at 4 ppm: 5%
  % PHAKPA (F129L) Disease level P2 at 16 ppm: 1%

## CNC(=O)/C(=N/OC)c1cccc(C)c1CO/N=C(\C)c1cc(C(F)(F)F)ccc1C(F)(F)F [compound 272]
[1]
  % PHAKPA (F129L) Disease level P2 at 4 ppm: 60%
  % PHAKPA (F129L) Disease level P2 at 16 ppm: 8%

## CNC(=O)/C(=N/OC)c1cccc(C)c1CO/N=C(\C)c1cc(C(F)(F)F)ccc1C [compound 273]
[1]
  % PHAKPA (F129L) Disease level P2 at 4 ppm: 60%
  % PHAKPA (F129L) Disease level P2 at 16 ppm: 3%

## CNC(=O)/C(=N/OC)c1cccc(C)c1CO/N=C(\C)c1ccccc1OCOC [compound 314]
[1]
  % PHAKPA (F129L) Disease level P2 at 4 ppm: 100%
  % PHAKPA (F129L) Disease level P2 at 16 ppm: 40%

## CNC(=O)/C(=N/OC)c1cccc(C)c1CO/N=C(\C)c1ccccc1OC(C)C [compound 315]
[1]
  % PHAKPA (F129L) Disease level P2 at 4 ppm: 100%
  % PHAKPA (F129L) Disease level P2 at 16 ppm: 60%

## CNC(=O)/C(=N/OC)c1cccc(C)c1CO/N=C(\C)c1ccccc1Oc1ccccc1 [compound 321]
[1]
  % PHAKPA (F129L) Disease level P2 at 4 ppm: 100%
  % PHAKPA (F129L) Disease level P2 at 16 ppm: 40%

Reference: patent US20230172206A1 (BASF SE, priority 2020, published 2023)
